Patent publication US9670482B2, “Multispecific peptides” (BICYCLE THERAPEUTICS LIMITED, priority 2009, dated 2017)
Residues, ends and D or L forms follow the SMILES beside them.

Key:
Type in all cases: in vitro ADME
[1] = molecular target: T1, Cathepsin G (Homo sapiens, UniProt P08311); assay: Peptide conjugate digestion with Cathepsin G; design: key to the marks not given beside the values; conditions: 37° C. for 1 hr
T1 sequence (P08311 21-244): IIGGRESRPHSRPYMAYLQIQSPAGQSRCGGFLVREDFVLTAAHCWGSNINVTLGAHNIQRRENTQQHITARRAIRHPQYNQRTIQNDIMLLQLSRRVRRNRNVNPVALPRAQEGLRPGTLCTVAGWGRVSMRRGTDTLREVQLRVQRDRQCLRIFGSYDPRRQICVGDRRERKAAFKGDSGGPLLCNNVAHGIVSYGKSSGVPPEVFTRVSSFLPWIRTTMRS
Protocol: (§1) Linear peptides (PK15 and CG4L1-PK15L1) were first treated with iodoacetamide prior to digestion studies. The peptides (ca 3-4 mg) were purified by HPLC (semi-prep Proteo column as described in general methods), and the HPLC fraction (ca 3 ml) was neutralised with an equal volume of 50 mM ammonium bicarbonate. […] The reaction mixture was concentrated (rotary evaporator) and re-purified by HPLC as above.
(§2) Peptides (linear and conjugates) were dissolved in water at a concentration of 1 mg/ml, giving an effective concentration of −0.5 mM stock solutions. 2 μl of peptide conjugates (˜30 μM in reactions depending on actual molecular weight) where dissolved in reaction buffer (see below) in a total reaction volume of 30 μl, followed by the protease, and samples were incubated at 37° C. for 1 hr. 10 μl aliquots were quenched into 20 μl of 10% dichloroacetic acid in MeCN/H2O (1:1) and stored at −20° C. for 30 minutes, centrifuged at 4° C. (13000 rpm) for 5 minutes and then spotted onto MALDI-TOF mass spectrometer plate for analysis.
(§3) All reactions at 37° C. Cathepsin G and kalikrein reactions were carried out in 10 mM Tris pH 7.4, 150 mM NaCl, 10 mM MgCl2, 1 mM CaCl2, 0.1% BSA, 0.01% Triton X100, 5% DMSO. Chymotrypsin reactions were carried out in 100 mM Tris pH 7.4, 10 mM CaCl2. Pronase and proteinase K reactions were carried out in 100 mM Tris pH 7.4, 0.5% SDS. Subtilisin reactions were carried out in 50 mM KH2PO4 pH 7.5. Trypsin reactions were carried out in 67 mM sodium phosphate pH 7.6. Reaction conditions with serum involve dissolving the peptide in 1×PBS (total volume 24 μl) and 6 μl of human serum added to the reaction.

[2] = test system: Chymotrypsin; assay: Peptide conjugate digestion with Chymotrypsin; conditions: 37° C. for 1 hr
Protocol: as §1, §2, §3

[3] = molecular target: Kalikrein (Homo sapiens, UniProt P03952); assay: Peptide conjugate digestion with Kalikrein; design: digestion with Kalikrein: key to the marks not given beside the values; conditions: for digestion with Kalikrein: 37° C. for 1 hr
Protocol: as §1, §2, §3

[4] = test system: Pronase; assay: Peptide conjugate digestion with Pronase; design: key to the marks not given beside the values; conditions: 37° C. for 1 hr
Protocol: as §1, §2, §3

[5] = molecular target: Proteinase K (Parengyodontium album, UniProt P06873); assay: Peptide conjugate digestion with Proteinase K; design: key to the marks not given beside the values; conditions: 37° C. for 1 hr
Protocol: as §1, §2, §3

[6] = test system: Subtilisin; assay: Peptide conjugate digestion with Subtilisin; conditions: 37° C. for 1 hr
Protocol: as §1, §2, §3

[7] = test system: Trypsin; assay: Peptide conjugate digestion with Trypsin; conditions: 37° C. for 1 hr
Protocol: as §1, §2, §3

[8] = Resistance to serum; conditions: 37° C., human serum in PBS; later times not yet tested
Protocol: as §2, §3

Chain of Proteinase K (P06873 106-384): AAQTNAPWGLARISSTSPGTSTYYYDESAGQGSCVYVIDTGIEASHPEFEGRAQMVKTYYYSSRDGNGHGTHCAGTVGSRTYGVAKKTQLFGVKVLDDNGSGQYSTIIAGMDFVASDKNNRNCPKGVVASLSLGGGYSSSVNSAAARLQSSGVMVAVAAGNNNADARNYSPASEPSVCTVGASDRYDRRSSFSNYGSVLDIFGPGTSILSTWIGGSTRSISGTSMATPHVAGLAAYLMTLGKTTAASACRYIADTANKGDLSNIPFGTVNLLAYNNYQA
Chain of Kalikrein (P03952 20-638): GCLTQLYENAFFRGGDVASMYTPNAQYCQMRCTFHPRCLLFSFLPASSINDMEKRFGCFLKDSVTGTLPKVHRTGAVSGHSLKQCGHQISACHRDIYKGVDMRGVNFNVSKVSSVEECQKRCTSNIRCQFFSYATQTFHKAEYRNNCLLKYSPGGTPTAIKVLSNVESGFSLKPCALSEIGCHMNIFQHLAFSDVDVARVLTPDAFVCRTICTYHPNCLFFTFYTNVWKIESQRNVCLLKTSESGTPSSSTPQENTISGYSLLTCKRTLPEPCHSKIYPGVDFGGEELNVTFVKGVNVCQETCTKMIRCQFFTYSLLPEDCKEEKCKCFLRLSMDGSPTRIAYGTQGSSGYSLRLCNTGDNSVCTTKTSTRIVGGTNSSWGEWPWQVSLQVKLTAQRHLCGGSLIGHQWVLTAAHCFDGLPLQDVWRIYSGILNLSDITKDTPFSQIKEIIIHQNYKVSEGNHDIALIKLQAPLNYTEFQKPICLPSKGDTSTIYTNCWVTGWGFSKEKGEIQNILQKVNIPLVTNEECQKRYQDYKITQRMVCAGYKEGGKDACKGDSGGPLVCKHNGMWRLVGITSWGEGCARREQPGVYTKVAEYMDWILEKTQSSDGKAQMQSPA

In the case of `CC(C)C[C@@H]1NC(=O)[C@H](C)NC(=O)[C@H](CCC(=O)O)NC(=O)[C@H](CC(=O)O)NC(=O)[C@H](C)NC(=O)[C@@H]2CCCN2C(=O)[C@@H]2CSCc3cc(cc(c3)CSC[C@@H](C(=O)NCC(=O)O)NC1=O)CSC[C@H](NC(=O)[C@H](C)N)C(=O)N[C@@H](CO)C(=O)N[C@@H](CC(=O)O)C(=O)N[C@@H](CCCNC(=N)N)C(=O)N[C@@H](Cc1ccccc1)C(=O)N[C@@H](CCCNC(=N)N)C(=O)N[C@@H](CC(N)=O)C(=O)N2` [PK15L1-PK15L2 bicyclic, reference compound] (HELM PEPTIDE1{A.C.S.D.R.F.R.N.C.P.A.D.E.A.L.C.G}|CHEM1{[c1c(C[*:1])cc(C[*:3])cc1C[*:2]]}$PEPTIDE1,CHEM1,2:R3-1:R1|PEPTIDE1,CHEM1,9:R3-1:R2|PEPTIDE1,CHEM1,16:R3-1:R3$$$V2.0), the “digestion with Cathepsin G” value ([1]; 0.01 μg enzyme per reaction) is reported as “+++”, the “digestion with Cathepsin G” value ([1]; 0.1 μg enzyme per reaction) is reported as “+++” and the “digestion with Chymotrypsin” value ([2]; 0.01 μg enzyme per reaction) is reported as “+++”. For the same molecule, the “digestion with Chymotrypsin” value ([2]; 0.1 μg enzyme per reaction) was “+++”, the “digestion with Chymotrypsin” value ([2]; 1 μg enzyme per reaction) was “+++” and the “digestion with Kalikrein” value ([3]; 0.01 μg enzyme per reaction) was “+++”. For the same molecule, the “digestion with Kalikrein” value ([3]; 0.1 μg enzyme per reaction) was “+++”, the “digestion with Kalikrein” value ([3]; 1 μg enzyme per reaction) was “+++” and the “factor by which the TBMB conjugate is more resistant than the linear peptide to attack by kallikrein” value ([3]; by comparing different concentrations of enzyme) was “about 100 fold”. For the same molecule, the “digestion with Pronase” value ([4]; 0.01 μg enzyme per reaction) was “+++”, the “digestion with Pronase” value ([4]; 0.1 μg enzyme per reaction) was “+++” and the “digestion with Proteinase K” value ([5]; 0.01 μg enzyme per reaction) was “+++”. The “digestion with Proteinase K” value ([5]; 0.1 μg enzyme per reaction) was “+++”, the “digestion with Proteinase K” value ([5]; 1 μg enzyme per reaction) was “+++” and the “digestion with Subtilisin” value ([6]; 0.009 μg enzyme per reaction) was “+++”. For the same molecule, the “digestion with Subtilisin” value ([6]; 9 μg enzyme per reaction) was “−”, the “digestion with Trypsin” value ([7]; 0.01 μg enzyme per reaction) was “+++” and the “digestion with Trypsin” value ([7]; 10 μg enzyme per reaction) was “−”. For the same molecule, the “time for which proteolysis in serum is resisted” value [8] was “at least 48 hours”.
